Experimental data as given in ChEMBL document CHEMBL5325413, “Optimization of BAX trigger site activator BTSA1 with improved antitumor potency and in vitro ADMET properties” (Eur J Med Chem, 2023).
The source made the active and inactive calls. The rule behind the calls is not given here.

Legend:
[1] = test system: A549; assay: Induction of apoptosis in human A549 cells assessed as cell rounding at 2.5 to 10 uM incubated for 48 hrs by Hoechst 33342 staining based fluorescence microscopic analysis; type: functional; settings: dose 2.5-10 µM
[2] = test system: HCT-116; assay: Antiproliferative activity against human HCT-116 cells assessed as cell growth inhibition incubated for 72 hrs by MTT assay; type: functional
[3] = mouse, microsomes, 1 h, 100 µM
[4] = human, 1 h, 100 µM
[5] = test system: A549; assay: Induction of apoptosis in human A549 cells assessed as late apoptotic cells at 10 uM incubated for 48 hrs by Annexin V-FITC/PI staining based flow cytometry analysis (reference value: 2.15%); type: functional
[6] = test system: K562; assay: Antiproliferative activity against human K562 cells expressing BAX assessed as cell growth inhibition incubated for 72 hrs by trypan blue cell counting analysis; type: functional
[7] = target: Cytochrome P450 2C19 (Homo sapiens, UniProt P33261); assay: Inhibition of CYP2C19 in human liver microsomes using S-mephenytoin as substrate prewarmed for 10 mins followed by NADPH addition and measured after 10 mins by LC-MS/MS analysis
Sequence of Cytochrome P450 2C19 (P33261 whole entry): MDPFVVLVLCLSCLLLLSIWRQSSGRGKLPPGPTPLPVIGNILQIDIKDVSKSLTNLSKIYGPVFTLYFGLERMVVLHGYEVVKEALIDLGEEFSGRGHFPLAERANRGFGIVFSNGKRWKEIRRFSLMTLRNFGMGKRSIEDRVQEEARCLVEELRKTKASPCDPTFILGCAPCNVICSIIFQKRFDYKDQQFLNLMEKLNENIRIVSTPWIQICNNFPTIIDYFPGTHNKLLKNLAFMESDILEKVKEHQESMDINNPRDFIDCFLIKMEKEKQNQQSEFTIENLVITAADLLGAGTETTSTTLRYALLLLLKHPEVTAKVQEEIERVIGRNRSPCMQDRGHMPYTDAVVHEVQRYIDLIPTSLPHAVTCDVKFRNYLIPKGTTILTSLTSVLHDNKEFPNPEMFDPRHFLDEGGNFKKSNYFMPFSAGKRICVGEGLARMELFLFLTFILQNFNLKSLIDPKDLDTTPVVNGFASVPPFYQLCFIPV

[8] = test system: MDA-MB-231; assay: Antiproliferative activity against human MDA-MB-231 cells expressing BAX assessed as cell growth inhibition incubated for 72 hrs by MTT assay; type: functional
[9] = target: Apoptosis regulator BAX (Homo sapiens) (UniProt Q07812); assay: Activation of BAX in human A549 cells at 20 uM incubated for 24 hrs by NP-40 based immunoprecipitation analysis; type: cell-based; settings: filed as activator
Sequence of Apoptosis regulator BAX (Homo sapiens) (Q07812 whole entry): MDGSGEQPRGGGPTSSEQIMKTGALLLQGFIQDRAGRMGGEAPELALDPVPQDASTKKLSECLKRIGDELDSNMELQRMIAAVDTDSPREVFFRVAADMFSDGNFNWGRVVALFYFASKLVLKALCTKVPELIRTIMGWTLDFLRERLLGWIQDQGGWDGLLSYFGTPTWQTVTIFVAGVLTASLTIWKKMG

[10] = Stability in rat plasma assessed as compound remaining measured after 120 mins; type: ADME, cell-free; settings: read-out: Stability
[11] = test system: A549; assay: Induction of apoptosis in human A549 cells assessed as live cells at 10 uM incubated for 48 hrs by Annexin V-FITC/PI staining based flow cytometry analysis (reference value: 96.4%); type: functional
[12] = test system: A549; assay: Induction of apoptosis in human A549 cells assessed as total apoptotic cells at 10 uM incubated for 48 hrs by Annexin V-FITC/PI staining based flow cytometry analysis (reference value: 4.26%); type: functional
[13] = target: Apoptosis regulator BAX (Homo sapiens) (UniProt Q07812); assay: Activation of BAX in human A549 cells assessed as increase in cytochrome-c release incubated for 24 hrs by Western blot analysis; type: cell-based; settings: filed as activator, dose 5-40 µM
[14] = test system: A549; assay: Inhibition of colony formation in human A549 cells incubated for 2 weeks by crystal violet staining based analysis; type: functional, cell-based; settings: dose 1-3 µM
[15] = target: T1, Cytochrome P450 1A2 (Homo sapiens, UniProt P05177); assay: Inhibition of CYP1A2 in human liver microsomes using phenacetin as substrate prewarmed for 10 mins followed by NADPH addition and measured after 10 mins by LC-MS/MS analysis
T1 sequence (P05177 whole entry): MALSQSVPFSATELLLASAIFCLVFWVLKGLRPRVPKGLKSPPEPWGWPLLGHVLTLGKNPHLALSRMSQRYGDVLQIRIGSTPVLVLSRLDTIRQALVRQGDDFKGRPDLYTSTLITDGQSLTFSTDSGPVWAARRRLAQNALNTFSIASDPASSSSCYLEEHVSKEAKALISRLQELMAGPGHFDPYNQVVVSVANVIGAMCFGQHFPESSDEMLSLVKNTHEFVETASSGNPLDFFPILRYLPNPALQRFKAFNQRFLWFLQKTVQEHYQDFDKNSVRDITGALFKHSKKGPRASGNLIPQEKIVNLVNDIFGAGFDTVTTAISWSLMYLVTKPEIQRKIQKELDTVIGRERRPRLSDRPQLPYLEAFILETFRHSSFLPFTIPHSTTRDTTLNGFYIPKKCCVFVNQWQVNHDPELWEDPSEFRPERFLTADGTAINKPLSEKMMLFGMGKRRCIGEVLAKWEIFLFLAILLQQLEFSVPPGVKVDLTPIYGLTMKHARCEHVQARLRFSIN

[16] = target: Cytochrome P450 2C9 (Homo sapiens, UniProt P11712); assay: Inhibition of CYP2C9 in human liver microsomes using diclofenac as substrate prewarmed for 10 mins followed by NADPH addition and measured after 10 mins by LC-MS/MS analysis
Sequence of Cytochrome P450 2C9 (P11712 whole entry): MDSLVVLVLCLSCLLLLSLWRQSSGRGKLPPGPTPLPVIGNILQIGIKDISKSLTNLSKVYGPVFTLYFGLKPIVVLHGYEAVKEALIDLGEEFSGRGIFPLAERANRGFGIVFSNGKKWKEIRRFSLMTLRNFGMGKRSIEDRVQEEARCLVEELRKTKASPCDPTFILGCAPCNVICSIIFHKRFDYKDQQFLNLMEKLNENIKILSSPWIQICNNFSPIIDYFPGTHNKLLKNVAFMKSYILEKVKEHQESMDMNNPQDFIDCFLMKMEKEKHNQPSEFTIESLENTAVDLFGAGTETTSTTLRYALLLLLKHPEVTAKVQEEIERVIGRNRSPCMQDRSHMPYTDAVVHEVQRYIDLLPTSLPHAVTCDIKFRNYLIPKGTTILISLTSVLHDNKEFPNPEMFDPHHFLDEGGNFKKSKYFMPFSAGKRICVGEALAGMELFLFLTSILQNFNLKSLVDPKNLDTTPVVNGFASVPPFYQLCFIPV

[17] = Metabolic stability in human liver microsomes assessed as parent compound remaining at 100 uM incubated for 60 mins in presence of NADPH by LC-MS/MS analysis
[18] = Stability in rat plasma assessed as compound remaining measured after 60 mins; type: ADME, cell-free; settings: read-out: Stability
[19] = test system: A549; assay: Induction of apoptosis in human A549 cells assessed as upregulation of BAX translocation at 20 uM incubated for 24 hrs by Western blot analysis; type: functional, cell-based
[20] = Drug recovery in mouse liver microsomes at 100 uM incubated for 60 mins in absence of NADPH by LC-MS/MS analysis; type: ADME, Microsome; settings: read-out: Drug recovery
[21] = test system: A549; assay: Induction of apoptosis in human A549 cells assessed as dead cells at 10 uM incubated for 48 hrs by Annexin V-FITC/PI staining based flow cytometry analysis (reference value: 0.535%); type: functional
[22] = test system: A549; assay: Induction of apoptosis in human A549 cells assessed as late apoptotic cells at 5 uM incubated for 48 hrs by Annexin V-FITC/PI staining based flow cytometry analysis (reference value: 2.52%); type: functional
[23] = test system: A549; assay: Induction of apoptosis in human A549 cells assessed as early apoptotic cells at 5 uM incubated for 48 hrs by Annexin V-FITC/PI staining based flow cytometry analysis (reference value: 1.09 %); type: functional
[24] = test system: A549; assay: Induction of apoptosis in human A549 cells assessed as total apoptotic cells at 10 uM incubated for 48 hrs by Annexin V-FITC/PI staining based flow cytometry analysis (reference value: 2.86%); type: functional
[25] = test system: PC-3; assay: Antiproliferative activity against human PC-3 cells assessed as cell growth inhibition incubated for 72 hrs by MTT assay; type: functional
[26] = Stability in rat plasma assessed as half life; type: ADME, cell-free

CN(C)C1CCN(C(=O)c2ccc(N3N=C(c4ccccc4)/C(=N/Nc4ccccc4)C3=O)cc2)CC1
Activity [1]: Active | GI50 [2]: 3.31 µM | CLint [3]: < 9.6 µL/min/mg | CLH [4]: < 8.6 mL/min/kg | Activity [5]: 22.5% | GI50 [6]: 1.41 µM | IC50 [7]: > 50 µM | GI50 [8]: 3.98 µM | Activity [9]: Active | remaining at 2 h [10]: 92.9% | Activity [11]: 95.9% | Activity [12]: 73.4% | Activity [13]: Dose-Dependent Effect | inhibition [14]: Dose-Dependent Effect | IC50 [15]: > 50 µM | IC50 [16]: > 50 µM | remaining at 1 h, 100 µM [17]: 97.9% | remaining at 1 h [18]: 94.8% | Activity [19]: Active | remaining at 1 h, 100 µM [20]: 96% | Activity [21]: 0.583% | Activity [22]: 4.83% | Activity [23]: 10.6% | Activity [24]: 93.7% | GI50 [25]: 2.5 µM | half-life [26]: > 4.82 h
